Results reported in patent US8536137B2, “Methods for treating nucleoside-induced pain” (UCB Pharma GmbH, priority 2004, dated 2013).

Key:
[1] = tested on: rats intoxicated with anti-retroviral nucleoside analogue AIDS therapy drugs; conditions: intoxicated animals; literature report; cited from earlier work
ddC-rats [2] = test: Nucleoside-induced pain model (ddC): cold bath test (thermal allodynia); format: in vivo, rat; conditions: for threshold latency in cold bath test vs ddC/vehicle: p<0.05 Dunnett's, comparable to control animals
Protocol: (§1) Animals were placed on ice platform submerged approximately 1 cm below the surface of cold water (4° C.), such that the hairy and glabrous skin of the animal feet was in contact with the cold water. The latency before the first reaction (licking, moving the paws, little leaps) was recorded with a cut off time of 30 s.
(§2) ANOVA followed by post-hoc analysis (Dunneft's test) was used to compare groups of behavioral data in each individual time points.
(§3) For this study, 50 male Sprague Dawley (˜220 g) rats were used (Janvier, Le Genest-St-isle, France). Rats were group-housed (3 animals per cage) and maintained in a room with controlled temperature (21-22° C.) and a reversed light-dark cycle (12 h/12 h) with food and water available ad libitum. All experiments were carried out in accordance with institutional guidelines. Intoxication was achieved by a single injection of ddC (50 mg/kg, I.V. in tail vein).

[3] = tested on: rat model of bone cancer pain, chemotherapy- and nucleoside-induced pain; test: Overall summary of the bone cancer, chemotherapy-induced and nucleoside-induced pain models; format: in vivo; conditions: across the three rat models
From the text: The effect of systemic administration of SPM 927 was examined in rats in a tumor-induced bone cancer pain model, in a chemotherapy-induced and a nucleoside analogue-induced neuropathic pain model. SPM 927 reduced mechanical and thermal hyperalgesia as well as mechanical and thermal allodynia in these models.

ddC-rats [4] = test: Nucleoside-induced pain model (ddC): brushing test at day 20 (mechanical allodynia); format: in vivo, rat
Protocol: as §2, §3
The hair on the legs, flanks, and lower back was sequentially brushed with a cotton-tipped applicator using an oscillating motion (rate of 1-2/s; 30 sec). Brushing was done with no more force than required to move the applicator through the hair such that only the pelage is disturbed. Vocalization and moderate effects to avoid the brushing were counted.

vincristine-rats [5] = test: Vincristine-induced pain model: hot plate test at 52° C. (thermal hyperalgesia); format: in vivo, rat; conditions: day 17, p<0.05 Dunnett's, comparable with control
Protocol: (§4) For this study, 86 female Dark Agouti rats (150-200 g) were used (Harlan, Gannat, France), They were group-housed (3 animals per cage) and maintained in a room with controlled temperature (21-22° C.) and a reversed light-dark cycle (12 h/12 h) with food and water available ad libitum. All experiments were carried out in accordance with institutional guidelines. Vincristine intoxication was achieved by daily injection of vincristine (0.15 mg/kg/d, i.p.) from day 1 to 5, from day 8 to 12 and days 15 to 16. On day 17, animals were submitted to the behavioral test and received pharmacological treatment.
(§5) Animals were placed into a glass cylinder on a hot plate (Bioblock, France) adjusted to 38° C. or 52° C. The latency of the first reaction (licking, moving the paws, little leaps or a jump to escape the heat) was recorded with a cut off time of 30 s.
as §2

[6] = tested on: bone cancer rats (MRMT-1 rat mammary gland carcinoma cells injected into the tibia); test: Bone cancer rat model: weight bearing difference (mechanical hyperalgesia); format: in vivo; conditions: SPM 927 40 mg/kg, following treatment; p<0.05
Protocol: After one week of quarantine, either culture media or 3×10^4 syngeneic MRMT-1 rat mammary gland carcinoma cells were injected into the medullary cavity of the proximal tibia of each rat. Procedurally, the animal was first anesthetized with ketamine/xylazine and the right leg area shaved and treated with an iodine solution and cleaned with a 70% ethanol solution. A 1-cm rostral-caudal incision was made in the skin over the top half of the tibia. Blunt-dissection was performed to expose the tibia, ensuring minimal damage to muscles or blood vessels. Using a 23-gauge needle, the tibia was pierced. […] The needle was inserted at an angle to enable it to be pushed down into the intramedullary canal of the bone. Once a pathway to the intramedullary canal was opened, the 23-gauge needle was removed and replaced by a blunt needle attached to a 5 μl Hamilton syringe. […]
On days 7, 8, 14 and 15, pain assessment tests were performed. […] The animals were first evaluated for mechanical allodynia and then thermal hyperalgesia. […] The animals were first evaluated for baseline weight bearing responses. […]
After the animals in groups 4-6 were re-randomized to drug treatment groups, on day 9, 15 all animals underwent weight-bearing testing. Weight bearing of affected hind limbs was assessed as the difference in weight borne by the ipsilateral compared to the contralateral limb. […]

vincristine-rats [7] = test: Vincristine-induced pain model: cold bath test (thermal allodynia); format: in vivo, rat; conditions: day 17; for threshold latency in cold bath test vs vincristine/vehicle: 30 min before test
Protocol: as §4, §1, §2

[8] = tested on: bone cancer rats (MRMT-1 rat mammary gland carcinoma cells injected into the tibia); test: Bone cancer rat model: thermal paw stimulation (thermal hyperalgesia); format: in vivo; conditions: SPM 927 30 mg/kg, days 14 and 15; Dunnett's p<0.001
Protocol: Cells were cultured in medium containing RPMI-1640 (Gibco, 500 ml), 10% heat-inactivated fetal bovine serum (Hyclone), L-glutamine (final concentration 2 mM, from Gibco) and antibiotic solution (final concentration 100 U/ml penicillin and 100 ug/ml streptomycin sulfate, from Gibco). Cells were released from the tissue culture flask by brief exposure to 0.1% trypsin so (Gibco) and then prepared for injection as follows: cells were centrifuged for 10 minutes at approximately 1,200 rpm. The resulting pellet was washed twice in Phosphate Buffered Saline (PBS, Mediatech) containing no calcium or magnesium. Final pellet was re-suspended in PBS and cell count taken using a hemocytometer. Cells were diluted to achieve final concentrations for injection and kept on ice until injection was performed.
After one week of quarantine, either culture media or 3×10^4 syngeneic MRMT-1 rat mammary gland carcinoma cells were injected into the medullary cavity of the proximal tibia of each rat. Procedurally, the animal was first anesthetized with ketamine/xylazine and the right leg area shaved and treated with an iodine solution and cleaned with a 70% ethanol solution. A 1-cm rostral-caudal incision was made in the skin over the top half of the tibia. […]
On days 7, 8, 14 and 15, pain assessment tests were performed. […] The animals were first evaluated for mechanical allodynia and then thermal hyperalgesia. […]

vincristine-rats [9] = test: Vincristine-induced pain model: paw pressure test (mechanical hyperalgesia); format: in vivo, rat; conditions: day 17; for paw withdrawal latency in paw pressure test (Randall & Selitto): p<0.05 Dunnett's
Protocol: as §4
(§6) The nociceptive flexion reflex was quantified using the Randall-Selitto paw pressure device (Bioseb, France), which applies a linearly increasing mechanical force to the dorsum of the rat's hind paw. The mechanical nociceptive threshold was defined as the force in grams at which the rat withdrew its paw. The cut off pressure was set to 250 g.
as §2

ddC-rats [10] = test: Nucleoside-induced pain model (ddC): hot plate test at 52° C. at D20 (thermal hyperalgesia); format: in vivo, rat
Protocol: as §5, §2, §3

ddC-rats [11] = test: Nucleoside-induced pain model (ddC): von Frey filament test at D10 (mechanical allodynia); format: in vivo, rat; conditions: for paw withdrawal latency in von Frey filament test, difference with vehicle-treated group: p<0.05, level comparable to control group
Protocol: (§7) Rats were placed on a metallic grid floor. The nociceptive testing was done by inserting the von Frey filament (Bioseb, France) through the grid floor and applying it to the plantar surface of the hind paw. A trial consisted of several applications of the different von Frey filaments (at a frequency of 1-1.5 s). The von Frey filaments were applied from filament 10 g to 100 g. The mechanical allodynia threshold was recorded as soon as the animal removed its hind paw the test was stopped and the filament number was recorded.
as §2, §3

ddC-rats [12] = test: Nucleoside-induced pain model (ddC): paw pressure test at D10 (mechanical hyperalgesia); format: in vivo, rat; conditions: p<0.05 Dunnett's
From the text: as §6, §2, §3

vincristine-rats [13] = test: Vincristine-induced pain model: hot plate test at 38° C. (thermal allodynia); format: in vivo, rat; conditions: day 17
Protocol: as §4, §5, §2

vincristine-rats [14] = test: Vincristine-induced pain model: von Frey hair stimulation test (mechanical allodynia); format: in vivo, rat; conditions: day 17; for paw withdrawal latency in von Frey filament test, difference with vehicle-treated group: p<0.05 Dunnett's
Protocol: as §4, §7, §2

In the case of `COc1cc(N(CC(=O)O)CC(=O)O)c2nc(COc3cc(C)ccc3N(CC(=O)O)CC(=O)O)ccc2c1` [Quin-2], the “reversal of nucleoside reverse transcriptase inhibitor-induced hypersensitivity” value [1] is listed as “capable of reversing”.
With `COC[C@@H](NC(C)=O)C(=O)NCc1ccccc1` [SPM 927, (R)-2-acetamide-N-benzyl-3-methoxypropionamide] the “threshold latency in cold bath test vs ddC/vehicle” value (from here on “threshold latency … vs ddC/vehicle”) (ddC-rats [2]; SPM 927 3 mg/kg i.p.) was “significant increase”, the “threshold latency … vs ddC/vehicle” value (ddC-rats [2]; SPM 927 10 mg/kg i.p.) was “significant increase” and the “threshold latency … vs ddC/vehicle” value (ddC-rats [2]; SPM 927 30 mg/kg i.p.) was “significant increase”. For the same compound, the “analgesic activity compared with morphine” value ([3]; systemic administration) was “overall more active than morphine”, the “anti-allodynic and anti-hyperalgesic effect” value ([3]; systemic, single dose administration) was “dose-dependent” and the “total number of cries in brushing test” value (ddC-rats [4]; SPM 927 3 mg/kg i.p., D 20, p<0.05 Dunnett's) was “significant decrease”. For the same compound, the “total number of cries in brushing test” value (ddC-rats [4]; SPM 927 10 mg/kg i.p., D 20, p<0.05 Dunnett's) was “significant decrease”, the “total number of cries in brushing test” value (ddC-rats [4]; SPM 927 30 mg/kg i.p., D20, p<0.05 Dunnett's) was “significant decrease” and the “paw withdrawal latency in hot plate test at 52° C. vs vehicle-treated animals” value (vincristine-rats [5]; SPM 927 3 mg/kg i.p.) was “significant increase”. The “paw withdrawal latency in hot plate test at 52° C. vs vehicle-treated animals” value (vincristine-rats [5]; SPM 927 10 mg/kg i.p.) was “significant increase”, the “paw withdrawal latency in hot plate test at 52° C. vs vehicle-treated animals” value (vincristine-rats [5]; SPM 927 30 mg/kg i.p.) was “significant increase” and the “amount of weight placed on contralateral paw (weight bearing difference) vs 'cells only' group” value [6] was “significant reduction”. For the same compound, the “threshold latency in cold bath test vs vincristine/vehicle” value (vincristine-rats [7]; SPM 927 3 mg/kg i.p., slightly greater than vincristine-animals) was “statistical difference was not reached”, the “threshold latency in cold bath test vs vincristine/vehicle” value (vincristine-rats [7]; SPM 927 10 mg/kg i.p., p<0.05 Dunnett's, comparable to control animals) was “significant increase” and the “threshold latency in cold bath test vs vincristine/vehicle” value (vincristine-rats [7]; SPM 927 30 mg/kg i.p., p<0.05 Dunnett's, comparable to control animals) was “significant increase”. For the same compound, the “latency to remove paw (thermal paw testing), post-treatment vs 'cells only'” value [8] was “different”, the “paw withdrawal latency in paw pressure test (Randall & Selitto)” value (shortened to “paw withdrawal latency … (Randall & Selitto)”) (vincristine-rats [9]; SPM 927 10 mg/kg i.p.) was “significant increase” and the “paw withdrawal latency … (Randall & Selitto)” value (vincristine-rats [9]; SPM 927 30 mg/kg i.p.) was “significant increase”. The “paw withdrawal latency in hot plate test at 52° C., effect” value (ddC-rats [10]; SPM 927 3 mg/kg i.p.) was “comparable with untreated vehicle group”, the “paw withdrawal latency in hot plate test at 52° C., effect” value (ddC-rats [10]; SPM 927 10 mg/kg i.p.) was “comparable with untreated vehicle group” and the “paw withdrawal latency in hot plate test at 52° C. vs vehicle-treated animals” value (ddC-rats [10]; SPM 927 30 mg/kg i.p., p<0.05 Dunnett's) was “significant increase”. For the same compound, the “paw withdrawal latency in von Frey filament test, difference with vehicle-treated group” value (ddC-rats [11]; SPM 927 3 mg/kg i.p.) was “reached the significance level”, the “paw withdrawal latency in von Frey filament test, difference with vehicle-treated group” value (ddC-rats [11]; SPM 927 10 mg/kg i.p.) was “reached the significance level” and the “paw withdrawal latency in von Frey filament test, difference with vehicle-treated group” value (ddC-rats [11]; SPM 927 30 mg/kg i.p.) was “reached the significance level”. The “paw withdrawal latency … (Randall & Selitto)” value (ddC-rats [12]; SPM 927 3 mg/kg i.p.) was “significant increase”, the “paw withdrawal latency … (Randall & Selitto)” value (ddC-rats [12]; SPM 927 10 mg/kg i.p.) was “significant increase” and the “paw withdrawal latency … (Randall & Selitto)” value (ddC-rats [12]; SPM 927 30 mg/kg i.p.) was “significant increase”. The “threshold latency in hot plate (38° C.) test vs vincristine/vehicle” value (vincristine-rats [13]; SPM 927 3 mg/kg i.p.) was “significant (p<0.05, Dunneft's test) increase”, the “threshold latency in hot plate (38° C.) test vs vincristine/vehicle” value (vincristine-rats [13]; SPM 927 10 mg/kg i.p., comparable with control animals) was “significant (p<0.05, Dunneft's test) increase” and the “threshold latency in hot plate (38° C.) test vs vincristine/vehicle” value (vincristine-rats [13]; SPM 927 30 mg/kg i.p., comparable with control animals) was “significant (p<0.05, Dunneft's test) increase”. For the same compound, the “paw withdrawal latency in von Frey filament test, difference with vehicle-treated group” value (vincristine-rats [14]; SPM 927 10 mg/kg i.p.) was “reached the significance level” and the “paw withdrawal latency in von Frey filament test, difference with vehicle-treated group” value (vincristine-rats [14]; SPM 927 30 mg/kg i.p.) was “reached the significance level”.
For `CCN(CC)CCCCCCCCOC(=O)c1cc(OC)c(OC)c(OC)c1` [TMB-8], the “reversal of nucleoside reverse transcriptase inhibitor-induced hypersensitivity” value [1] is given as “capable of reversing”.
With `CN1CC[C@]23c4c5ccc(O)c4O[C@H]2[C@@H](O)C=C[C@H]3[C@H]1C5` [morphine, reference compound] the “threshold latency in cold bath test, level reached” value (ddC-rats [2]; morphine 3 mg/kg s.c.) was “comparable to that obtained from control rats”, the “total number of cries in brushing test” value (ddC-rats [4]; morphine 3 mg/kg s.c., D 20) was “significantly decrease” and the “threshold latency in cold bath test, level reached” value (vincristine-rats [7]; morphine 3 mg/kg s.c., 45 min before test) was “far above that obtained from control rats”. For the same compound, the “performance in paw pressure test (Randall & Selitto)” value (vincristine-rats [9]; morphine 3 mg/kg s.c., p>0.05) was “did not modify the performance”, the “performance in von Frey filament test” value (ddC-rats [11]; morphine 3 mg/kg s.c.) was “restored the performance of ddC-rats to a level similar to control group” and the “performance in paw pressure test (Randall & Selitto)” value (ddC-rats [12]; morphine 3 mg/kg s.c.) was “increased the performance”. The “threshold latency in hot plate (38° C.) test, level reached” value (vincristine-rats [13]; morphine 3 mg/kg s.c.) was “comparable with that of control rats” and the “performance in von Frey filament test” value (vincristine-rats [14]; morphine 3 mg/kg s.c.) was “restored the performance of vincristine-rats to a level comparable with that of control group”.
